The term IC50 denotes the midpoint of a concentration-inhibition curve. A word on the Tmax: it is the time from dosing to the highest level. By AUC(0-t) is commonly meant the area under the concentration-time curve up to a stated or last time point. One may read the Cmax as the maximum level reached in the sampled fluid or tissue. The term Vd/F denotes the apparent distribution volume after extravascular dosing. The term half-life denotes how long it takes for the measured level to halve. One may read the clearance as a measure of how efficiently the substance is removed, as volume per time. By Vd is commonly meant a proportionality between amount in the body and measured concentration, not a real space. A low value points to confinement near the circulation. As usually defined, the AUC(0-inf) is the area under the concentration-time curve extrapolated to infinity.

Where two headings read alike, the source gives them in different places.

These results are taken from article PMC3644400 (Investigational New Drugs, 2012).

The subject of one data set is ErbB4. The settings on record: read-out: IC50 ErbB4; cited from earlier work.
The next data set concerns HER2. The settings on record: read-out: IC50 HER2; cited from earlier work.
A short description of data set [1]: Plasma pharmacokinetics (HPLC tandem-mass spectrometry). The settings on record: MTD group.
Method: (§1) For determination of the pharmacokinetic (PK) profile of docetaxel, blood samples were collected approximately 5 min before and 1, 2, 4 and 8 h after the start of docetaxel infusion (day 1) in cycles 1 and 2.
(§2) Samples were analysed using validated high-performance liquid chromatography tandem-mass spectrometry. PK parameters were calculated using WinNonlin® Professional (version 5.0.1, Pharsight® Corporation, Cary, NC, USA) and were assessed graphically and summarised by timepoint descriptive statistics using SAS.
A further data set in a line: clinical. Conditions: human, in vivo.
A short description of data set [2]: Phase I dose escalation: MTD and dose-limiting toxicity. It counts as in vivo, patients. How it is done:
Docetaxel was initiated at 60 mg/m^2 IV infusion and increased to 75 mg/m^2 IV infusion in the absence of DLT.
A standard ‘3 + 3’ design was used. The MTD was defined as the highest dose of afatinib at which no more than one out of six patients experienced a DLT. Once the MTD was determined, a further 12 evaluable patients were included at the MTD level.

For data set [3] the following is noted: human, in vivo.
Method: as §1, §2
The subject of a further data set is advanced solid tumors. Conditions: intermittent high-dose gefitinib given prior to docetaxel; cited from earlier work.
For data set [4] the following is noted: docetaxel (day 1) followed by intermittent erlotinib (days 2–16 every 3 weeks), previously treated advanced NSCLC; cited from earlier work.
A further data set has as its system advanced NSCLC. Conditions: cited from earlier work; for response rate: advanced NSCLC.

Method for clinical: as §1, §2

Take `CN(C)C/C=C/C(=O)Nc1cc2c(Nc3ccc(F)c(Cl)c3)ncnc2cc1O[C@H]1CCOC1` [afatinib]: the concentration for half-maximal inhibition (IC50) in the data set with ErbB4 is […]; in the data set on HER2, 14 nM. Moreover, the time of peak concentration (Tmax) came to 3 h in data set [1] (human, in vivo, Afatinib tmax, median, treatment cycle 1 (n = 13)) and 4.03 h in “clinical”. Also, the exposure AUC(0-t) in “clinical” came out at […]; in “clinical” (75 mg/m2) it was 879 ng·h/mL. The compound further showed a maximum concentration (Cmax) in “clinical” (Afatinib Cmax, gMean) of 71.4 ng/mL. Also, the Vd/F in “clinical” (Afatinib Vz/F, gMean) amounted to 1500 L. For the same compound, in [2] (afatinib days 2–4 with docetaxel 75 mg/m^2 day 1, 3-week cycles), the “maximum tolerated dose (MTD) of afatinib” value is 90 mg/day. The “MTD and recommended phase II dose of afatinib” value in data set [2] (once daily for 3 days following docetaxel 75 mg/m^2) came to 90 mg.
As to `CC(=O)O[C@@]12CO[C@@H]1C[C@H](O)[C@@]1(C)C(=O)[C@H](O)C3=C(C)[C@@H](OC(=O)[C@H](O)[C@@H](NC(=O)OC(C)(C)C)c4ccccc4)C[C@@](O)([C@@H](OC(=O)c4ccccc4)[C@H]21)C3(C)C` [docetaxel], in data set [3], the “Docetaxel AUC0–24, gMean” value was 2680 ng·h/mL; the “Docetaxel AUC0–∞, gMean ratio cycle 2 to cycle 1” value was determined as 118%; the “Docetaxel CL, gMean” value is on record as 682 mL/min; the “Docetaxel Cmax, gMean” value turned out to be 2200 ng/mL. In data set [3], the “Docetaxel Cmax, gMean ratio cycle 2 to cycle 1” value is 115%; the “Docetaxel VSS, gMean” value is on record as 487 L; the “Docetaxel Vz, gMean” value was determined as 1250 L; the “Docetaxel tmax, median” value was 1.00 h. Also, in data set [1] (treatment cycle 2 (n = 8)), the “Docetaxel AUC0–∞, gMean” value was 3260 ng·h/mL and the “Docetaxel t1/2, gMean” value was 21.1 h. This compound also had a half-life in “clinical” of 20.9 h. Further, in “clinical” (Docetaxel AUC0–24, gMean), the AUC(0-t) was determined as 2630 ng·h/mL. The compound further gave a clearance in “clinical” (Docetaxel CL, gMean) of 712 mL/min. The same compound had a maximum concentration (Cmax) in “clinical” (Docetaxel Cmax, gMean) of 2070 ng/mL. Further, the Vd in the data set “clinical” (Docetaxel VSS, gMean) was found to be 488 L. In “clinical” (Docetaxel Vz, gMean), this compound showed a Vd of 1290 L. Also, in the data set “clinical” (Docetaxel tmax, median), the Tmax worked out at 1 h. In the data set “clinical” (iv, 75 mg/m2), this compound yielded an area under the curve AUC(0-inf) of 3160 ng·h/mL.
For `COc1cc2ncnc(Nc3ccc(F)c(Cl)c3)c2cc1OCCCN1CCOCC1` [gefitinib], in the data set with advanced solid tumors, the objective response rate is 11%.
Turning to `C#Cc1cccc(Nc2ncnc3cc(OCCOC)c(OCCOC)cc23)c1` [erlotinib], in data set [4], the “grade 3/4 neutropenia” value is given as 60%. The response rate in the data set with advanced NSCLC (chemotherapy followed by erlotinib) was 28%; in the data set with advanced NSCLC (high-dose erlotinib (days 1 and 2) with carboplatin and paclitaxel (day 3)) it was 34%; with advanced NSCLC (low-dose erlotinib, same schedule with carboplatin and paclitaxel), 18%. The objective response rate with advanced NSCLC (docetaxel (day 1) followed by intermittent erlotinib (days 2–16 every 3 weeks), previously treated advanced NSCLC) is listed as 35%.
